Source: patent US12540131B2 (Merck Sharp & Dohme LLC, priority 2019, dated 2026)

Molecular target: GST tagged truncated human mutant G2019S LRRK2 (Homo sapiens (Human), UniProt Q5S007, G2019S)
Test: LRRK2 Km ATP LanthaScreen Assay
Assay type: biochemical
Settings: G2019S LRRK2, 134 μM ATP (Km ATP), mean values; for IC50: read-out: LRRK2 pIC50 (converted)
In short: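 Enzyme (GST-tagged, truncated) was preincubated with compound for 15 min at RT in 50 mM Tris pH 8.5, 10 mM MgCl2, 0.01% Brij-35, 1 mM EGTA, 2 mM DTT and 0.05 mM orthovanadate. Fluorescein-LRRKtide and 134 μM ATP (Km) were then added for 90 min. EDTA and Tb-anti-pERM antibody stopped the reaction; the TR-FRET 520/495 ratio gave 4-parameter IC50s, reported as mean pIC50.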

GST tagged truncated human mutant G2019S LRRK2, sequence (Q5S007 970-2527 G2019S): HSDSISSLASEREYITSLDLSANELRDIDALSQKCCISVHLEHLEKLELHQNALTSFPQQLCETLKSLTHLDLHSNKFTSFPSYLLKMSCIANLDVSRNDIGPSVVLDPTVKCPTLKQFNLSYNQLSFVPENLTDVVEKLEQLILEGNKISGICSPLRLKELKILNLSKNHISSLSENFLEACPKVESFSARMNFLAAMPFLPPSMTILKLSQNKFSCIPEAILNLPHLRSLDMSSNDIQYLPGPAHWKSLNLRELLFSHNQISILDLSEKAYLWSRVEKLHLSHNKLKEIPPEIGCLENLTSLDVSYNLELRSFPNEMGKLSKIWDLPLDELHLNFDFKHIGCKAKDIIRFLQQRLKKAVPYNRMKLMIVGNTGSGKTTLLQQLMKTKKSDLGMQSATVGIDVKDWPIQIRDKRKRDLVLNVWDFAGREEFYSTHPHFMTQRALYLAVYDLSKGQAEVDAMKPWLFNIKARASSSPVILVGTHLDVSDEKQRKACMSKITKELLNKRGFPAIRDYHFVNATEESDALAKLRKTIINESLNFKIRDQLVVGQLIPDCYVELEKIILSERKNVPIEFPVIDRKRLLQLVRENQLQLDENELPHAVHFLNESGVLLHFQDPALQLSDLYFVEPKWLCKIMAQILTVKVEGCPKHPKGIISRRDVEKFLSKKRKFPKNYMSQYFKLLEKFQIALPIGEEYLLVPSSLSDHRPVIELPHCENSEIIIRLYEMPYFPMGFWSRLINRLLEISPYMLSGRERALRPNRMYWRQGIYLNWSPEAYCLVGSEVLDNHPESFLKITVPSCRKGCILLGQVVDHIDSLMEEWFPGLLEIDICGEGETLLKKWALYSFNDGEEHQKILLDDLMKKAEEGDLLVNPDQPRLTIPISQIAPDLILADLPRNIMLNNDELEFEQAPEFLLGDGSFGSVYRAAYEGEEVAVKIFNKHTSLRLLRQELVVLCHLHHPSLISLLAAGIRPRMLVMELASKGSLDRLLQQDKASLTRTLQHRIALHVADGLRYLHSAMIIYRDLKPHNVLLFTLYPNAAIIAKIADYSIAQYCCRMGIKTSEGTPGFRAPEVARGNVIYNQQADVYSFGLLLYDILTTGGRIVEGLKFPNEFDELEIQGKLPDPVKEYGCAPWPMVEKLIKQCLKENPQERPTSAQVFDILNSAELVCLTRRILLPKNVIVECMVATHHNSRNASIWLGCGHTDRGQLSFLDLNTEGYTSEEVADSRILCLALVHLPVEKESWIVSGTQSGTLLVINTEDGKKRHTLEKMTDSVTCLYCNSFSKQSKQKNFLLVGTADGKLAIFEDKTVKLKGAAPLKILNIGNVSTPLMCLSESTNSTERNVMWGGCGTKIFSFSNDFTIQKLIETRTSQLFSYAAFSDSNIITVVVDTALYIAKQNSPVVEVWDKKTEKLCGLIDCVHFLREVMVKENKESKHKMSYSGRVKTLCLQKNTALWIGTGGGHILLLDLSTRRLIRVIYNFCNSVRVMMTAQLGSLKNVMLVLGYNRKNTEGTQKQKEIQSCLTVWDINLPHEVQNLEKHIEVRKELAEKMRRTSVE

Structure (SMILES)	LRRK2 pIC50	IC50
O[C@H]1COC[C@H]1N1CC[C@H](c2cc3nc(Nc4cnn(C56CC(C5)C6)c4)ncc3cc2Cl)[C@@H](F)C1 (single isomer, unassigned) [Ex-4.156, (3S,4S)(3S,4S) or (3S,4S)(3R,4R) or (3R,4R)(3S,4S) or (3R,4R)(3R,4R) 4-[4-(2-{[1-(bicyclo[1.1.1]pentan-1-yl)-1H-pyrazol-4-yl]amino}-6-chloroquinazolin-7-yl)-3-fluoropiperidin-1-yl]oxolan-3-ol]	>9.20	–
FC(F)(F)Cn1ncc(Nc2ncc3cc(Cl)c(C4CCN(C5COC5)CC4)cc3n2)c1Cl [Ex-8.1, 6-chloro-N-(5-chloro-1-(2,2,2-trifluoroethyl)-1H-pyrazol-4-yl)-7-(1-(oxetan-3-yl)piperidin-4-yl)quinazolin-2-amine]	>9.20	–
Cc1cc2cnc(Nc3cnn(C)c3C)nc2cc1C1CCN([C@@H]2COC[C@@H]2O)CC1 (single isomer, unassigned) [Ex-2.79, (3S,4S) or (3R,4R) 4-(4-{2-[(1,5-dimethyl-1H-pyrazol-4-yl)amino]-6-methylquinazolin-7-yl}piperidin-1-yl)oxolan-3-ol]	>9.20	–
Clc1cc2cnc(Nc3cnn(C4CC4)c3Cl)nc2cc1C1CCN(C2COC2)CC1 [Ex-8.8, 6-chloro-N-(5-chloro-1-cyclopropyl-1H-pyrazol-4-yl)-7-[1-(oxetan-3-yl)piperidin-4-yl]quinazolin-2-amine]	>9.20	–
O=S1(=O)CCC(N2CCC(c3cc4nc(Nc5cnn(CC(F)F)c5Cl)ncc4cc3Cl)CC2)C1 (racemic) [Ex-4.6, (S) and (R) 3-(4-(6-chloro-2-((5-chloro-1-(2,2-difluoroethyl)-1H-pyrazol-4-yl)amino)quinazolin-7-yl)piperidin-1-yl)tetrahydrothiophene 1,1-dioxide]	–	< 0.631 nM
Cc1c(Nc2ncc3cc(Cl)c(C4CCN(C5(C)COC5)CC4)cc3n2)cnn1C1CCOC1 (single isomer, unassigned) [Ex-2.26, (S) or (R) 6-chloro-7-[1-(3-methyloxetan-3-yl)piperidin-4-yl]-N-[5-methyl-1-(oxolan-3-yl)-1H-pyrazol-4-yl]quinazolin-2-amine]	–	< 0.631 nM
Cc1c(Nc2ncc3cc(Cl)c([C@@H]4CCN([C@H]5COC[C@H]5O)C[C@H]4F)cc3n2)cnn1C (single isomer, unassigned) [Ex-4.256, (3S,4S)(3S,4S) or (3S,4S)(3R,4R) or (3R,4R)(3S,4S) or (3R,4R)(3R,4R) 4-(4-(6-chloro-2-((1,5-dimethyl-1H-pyrazol-4-yl)amino)quinazolin-7-yl)-3-fluoropiperidin-1-yl)tetrahydrofuran-3-ol]	>9.20	–
Cc1c(Nc2ncc3cc(Cl)c(C4CCN(C5COC5)[C@H](C)C4)cc3n2)cnn1C1CC1 (single isomer, unassigned) [Ex-1.13, (S) or (R) 6-chloro-N-(1-cyclopropyl-5-methyl-1H-pyrazol-4-yl)-7-(2-methyl-1-(oxetan-3-yl)piperidin-4-yl)quinazolin-2-amine]	–	0.776 nM
Cc1cc2cnc(Nc3cnn(C4CC4(F)F)c3Cl)nc2cc1[C@@H]1CCN(C2COC[C@H]2O)C[C@H]1F (single isomer, unassigned) [Ex-4.138, (R)(3S,4S)(3S,4S) or (R)(3S,4S)(3R,4R) or (R)(3R,4R)(3S,4S) or (R)(3R,4R)(3R,4R) or (S)(3S,4S)(3S,4S) or (S)(3S,4S)(3R,4R) or (S)(3R,4R)(3S,4S) or (S)(3R,4R)(3R,4R) 4-[4-(2-{[5-chloro-1-(2,2-difluorocyclopropyl)-1H-pyrazol-4-yl]amino}-6-methylquinazolin-7-yl)-3-fluoropiperidin-1-yl]oxolan-3-ol]	8.44	–
C[C@@]1(N2CC[C@@H](c3cc4nc(Nc5cnn(C6CC6(F)F)c5Cl)ncc4cc3Cl)[C@H](F)C2)COC[C@@H]1O (single isomer, unassigned) [Ex-4.230, (R)(3S,4S)(3S,4S) or (R)(3S,4S)(3R,4R) or (R)(3R,4R)(3S,4S) or (R)(3R,4R)(3R,4R) or (S)(3S,4S)(3S,4S) or (S)(3S,4S)(3R,4R) or (S)(3R,4R)(3S,4S) or (S)(3R,4R)(3R,4R) 4-(4-(6-chloro-2-((5-chloro-1-(2,2-difluorocyclopropyl)-1H-pyrazol-4-yl)amino)quinazolin-7-yl)-3-fluoropiperidin-1-yl)-4-methyltetrahydrofuran-3-ol]	9.13	–
CC1(CN2CCC(c3cc4nc(Nc5cnn(C6CC6)c5Cl)ncc4cc3Cl)CC2)COC1 [Ex-4.20, 6-chloro-N-(5-chloro-1-cyclopropyl-1H-pyrazol-4-yl)-7-{1-[(3-methyloxetan-3-yl)methyl]piperidin-4-yl}quinazolin-2-amine]	8.11	–
Cn1nc(C(C)(C)C)cc1Nc1ncc2cc(Cl)c([C@@H]3CCN([C@]4(C)COC[C@@H]4O)C[C@H]3F)cc2n1 (single isomer, unassigned) [Ex-4.245, (3S,4S)(3S,4S) or (3S,4S)(3R,4R) or (3R,4R)(3S,4S) or (3R,4R)(3R,4R) 4-(4-{2-[(3-tert-butyl-1-methyl-1H-pyrazol-5-yl)amino]-6-chloroquinazolin-7-yl}-3-fluoropiperidin-1-yl)-4-methyloxolan-3-ol]	>9.20	–
COC(C)(C)Cn1cc(Nc2ncc3cc(Cl)c(C4CCN(C5COC5)CC4)cc3n2)c(C)n1 [Ex-2.16, 6-chloro-N-[1-(2-methoxy-2-methylpropyl)-3-methyl-1H-pyrazol-4-yl]-7-[1-(oxetan-3-yl)piperidin-4-yl]quinazolin-2-amine]	8.94	–
OC1(Cn2ncc(Nc3ncc4cc(Cl)c(C5CCN(C6COC6)CC5)cc4n3)c2Cl)CCC1 [Ex-8.26, 1-{[5-chloro-4-({6-chloro-7-[1-(oxetan-3-yl)piperidin-4-yl]quinazolin-2-yl}amino)-1H-pyrazol-1-yl]methyl}cyclobutan-1-ol]	8.78	–
Cc1cc(Nc2ncc3cc(Cl)c([C@@H]4CCN(C5COC5)C[C@H]4F)cc3n2)sn1 (single isomer, unassigned) [Ex-4.50, (3S,4S) or (3R,4R) 6-chloro-7-[3-fluoro-1-(oxetan-3-yl)piperidin-4-yl]-N-(3-methyl-1,2-thiazol-5-yl)quinazolin-2-amine]	>9.20	–
CC1(Cn2ncc(Nc3ncc4cc(Cl)c([C@H]5CCN(C6COC6)C[C@@H]5F)cc4n3)c2Cl)COC1 (single isomer, unassigned) [Ex-2.12, (3S,4S) or (3R,4R) 6-chloro-N-{5-chloro-1-[(3-methyloxetan-3-yl)methyl]-1H-pyrazol-4-yl}-7-[3-fluoro-1-(oxetan-3-yl)piperidin-4-yl]quinazolin-2-amine]	>9.20	–
CO[C@@H]1COC[C@@H]1N1CC[C@@H](c2cc3nc(Nc4cnn(C5CC5(F)F)c4Cl)ncc3cc2C)[C@H](F)C1 (single isomer, unassigned) [Ex-4.246, (R)(3S,4S)(3S,4S) or (R)(3S,4S)(3R,4R) or (R)(3R,4R)(3S,4S) or (R)(3R,4R)(3R,4R) or (S)(3S,4S)(3S,4S) or (S)(3S,4S)(3R,4R) or (S)(3R,4R)(3S,4S) or (S)(3R,4R)(3R,4R) N-[5-chloro-1-(2,2-difluorocyclopropyl)-1H-pyrazol-4-yl]-7-[3-fluoro-1-(4-methoxyoxolan-3-yl)piperidin-4-yl]-6-methylquinazolin-2-amine]	8.22	–
